Nine compounds from patent EP1044978A2, “1-N-alkyl-5'-[(N'-(un)substituted)amido]spiroindolinonaphthoxazines, their preparation, compositions and (co)polymer matrices containing them” (Corning S.A., priority 1999, dated 2000) can be followed below.

The data set in a line: Photochromic properties of lens samples (2 mm, compound in matrix I or II) exposed to UV radiation from a xenon lamp. The following applies: lens sample. The format is physicochemical. The text has this: The matrix used in accordance with the present invention may be one of two types :
A homopolymer of the monomer DIACRYL 121 (D121 : tetraethoxylated Bisphenol A dimethylmethacrylate), marketed by Akzo Nobel; or
A copolymer comprised of a 50/50 mixture by weight of D121 (as above) and polyethylene glycol dimethacrylate (Molecular weight = 400) (PEGDMA 400).
10^-5 moles of at least one compound of the invention, together with 0.2% by weight of AMBN (2,2'-azobis(2-methylbutyronitrile)) provided by Akzo, are added to 10 g of formulations able to generate cross-linked matrix I or II. The formulations thus prepared are then poured into a lens mould of 2 mm thickness and then cured by heating at 60°C for 6 hours, followed by heating at 80°C for 2 hours to give a lens sample.
The photochromic properties of the lens samples thus obtained were then evaluated as follows :
Said lens sample, containing said photochromic compounds in its mass, is exposed to a UV radiation (source: xenon lamp).
Bleu D: 1,3-dihydro-1,3,3,5,6-pentamethylspiro[2H-indole-2'3'-[3H]-naphth-[2,1-b][1,4]oxazine] supplied by Great Lakes. T0 : the transmission before exposure to UV TD15 : the transmission after 15 minutes' exposure to UV OID : optical induced density (D∞-D0) [D∞ is the density after exposure, D0 the density before exposure] t1/2 : time of half-darkness which characterises the kinetics of the return to the initial state when at the equilibrium the exposure is cut off. λmax : the maximum absorption in the visible spectrum after UV irradiation.

Where [1] appears, read: Matrix I (homopolymer of DIACRYL 121).
Setting [2] is: Matrix II (50/50 D121 / PEGDMA 400 copolymer).

For “1,3-dihydro-1,3,3,4(5),5(6)-pentamethyl-5'-piperidinocarbonyl-spiro[2H]-indole-2,3'-[3H]naphth[2,1-b][1,4]oxazine [Example 5]”, under setting [1], the “OID (optical induced density, D∞-D0)” value is recorded as 0.905; the “T0 (the transmission before exposure to UV)” value is given as 77.6%; the “TD15 (the transmission after 15 minutes' exposure to UV)” value (“TD15” below) stood at 9.7%; the “λmax (the maximum absorption in the visible spectrum after UV irradiation)” value (from here on “λmax”) stood at 626 nm. For the same compound, under setting [2], the “OID (optical induced density, D∞-D0)” value is 1.067; the “T0 (the transmission before exposure to UV)” value stood at 80.7%; the “TD15” value was determined as 6.9%; the “λmax” value is 622 nm.

With `CN1c2ccccc2C(C)(C)C12C=Nc1c(ccc3ccccc13)O2` (stereo not shown) [Control I, 1,3-dihydro-1,3,3-trimethylspiro[2H-indole-2,3'-[3H]-naphth[2,1-b][1,4]oxazine], reference compound], under setting [1], the “OID (optical induced density, D∞-D0)” value is 0.142; the “T0 (the transmission before exposure to UV)” value amounted to 90.9%; the “TD15” value amounted to 65.6%; the “λmax” value was found to be 607 nm. Also, under setting [2], the “OID (optical induced density, D∞-D0)” value is reported as 0.140; the “T0 (the transmission before exposure to UV)” value turned out to be 90.5%; the “TD15” value came to 65.5%; the “λmax” value is 610 nm.

Consider `Cc1cc2c(cc1C)C(C)(C)C1(C=Nc3c(ccc4ccccc34)O1)N2C` (stereo not shown) [Control II, 1,3-dihydro-1,3,3,5,6-pentamethylspiro[2H-indole-2'3'-[3H]-naphth-[2,1-b][1,4]oxazine], reference compound], for which, under setting [1], the “OID (optical induced density, D∞-D0)” value is 0.280; the “T0 (the transmission before exposure to UV)” value was 90.5%; the “TD15” value turned out to be 47.5%; the “λmax” value was 616 nm. Under setting [2], the “OID (optical induced density, D∞-D0)” value came out at 0.357; the “T0 (the transmission before exposure to UV)” value is on record as 90.5%; the “TD15” value was determined as 39.8%; the “λmax” value is 616 nm.

Consider `CN1c2ccccc2C(C)(C)C12C=Nc1c(c(C(=O)N3CCOCC3)cc3ccccc13)O2` (stereo not shown) [Example 1, 1,3-dihydro-1,3,3-trimethyl-5'-morpholinocarbonylspiro[2H-indole-2,3'-[3H]-naphtho[2,1-b][1,4]oxazine]], for which, under setting [2], the “OID (optical induced density, D∞-D0)” value came to 0.324; the “T0 (the transmission before exposure to UV)” value was determined as 88.9%; the “TD15” value is listed as 42.2%; the “λmax” value is on record as 620 nm.

Take `CN1c2ccccc2C(C)(C)C12C=Nc1c(c(C(=O)N3CCCCC3)cc3ccccc13)O2` (stereo not shown) [Example 2, 1,3-dihydro-1,3,3-trimethyl-5'-piperidinocarbonylspiro[2H-indole-2,3'-[3H]-naphtho[2,1-b][1,4]oxazine]]: under setting [1], the “OID (optical induced density, D∞-D0)” value is given as 0.152; the “T0 (the transmission before exposure to UV)” value was found to be 89.0%; the “TD15” value is 62.6%; the “λmax” value is 618 nm.

In the case of `Cc1ccc(NC(=O)c2cc3ccccc3c3c2OC2(C=N3)N(C)c3ccccc3C2(C)C)cc1` (stereo not shown) [Example 3, 1,3-dihydro-1,3,3-trimethyl-5'-p-(tolylcarbamoyl)spiro[2H-indole-2,3'-[3H]-naphtho[2,1-b][1,4]oxazine]], under setting [1], the “OID (optical induced density, D∞-D0)” value stood at 0.707; the “T0 (the transmission before exposure to UV)” value came out at 75.5%; the “TD15” value stood at 14.8%; the “λmax” value was 634 nm.

`CN1c2ccccc2C(C)(C)C12C=Nc1c(c(C(=O)N3CCc4ccccc43)cc3ccccc13)O2` (stereo not shown) [Example 4, 1,3-dihydro-1,3,3-trimethyl-5'-indolinocarbonylspiro[2H-indole-2,3'-[3H]-naphtho[2,1-b][1,4]oxazine]]: under setting [1], the “OID (optical induced density, D∞-D0)” value is 0.339; the “T0 (the transmission before exposure to UV)” value is reported as 86.9%; the “TD15” value was found to be 39.8%; the “λmax” value turned out to be 622 nm. Also, under setting [2], the “OID (optical induced density, D∞-D0)” value stood at 0.553; the “T0 (the transmission before exposure to UV)” value stood at 85.4%; the “TD15” value is reported as 23.9%; the “λmax” value was found to be 622 nm.

Take `COc1ccc2c(c1)C(C)(C)C1(C=Nc3c(c(C(=O)N4CCCCC4)cc4ccccc34)O1)N2C` (stereo not shown) [Example 6, 1,3-dihydro-5-methoxy-1,3,3-trimethyl-5'-piperidinocarbonylspiro[2H]-indole-2,3'-[3H]naphth[2,1-b][1,4]oxazine]: under setting [2], the “OID (optical induced density, D∞-D0)” value was 0.858; the “T0 (the transmission before exposure to UV)” value is 81.9%; the “TD15” value worked out at 11.3%; the “λmax” value worked out at 634 nm.

As for `CC(C)CN1c2ccccc2C(C)(C)C12C=Nc1c(c(C(=O)N3CCCCC3)cc3ccccc13)O2` (stereo not shown) [Example 7, 1,3-dihydro-1-(2'-methylpropyl)-3,3-dimethyl-5'-piperidinocarbonylspiro[2H-indole-2,3'-[3H]-naphtho[2,1-b] [1,4]oxazine]], under setting [2], the “OID (optical induced density, D∞-D0)” value turned out to be 0.437; the “T0 (the transmission before exposure to UV)” value was 86.9%; the “TD15” value was 31.8%; the “λmax” value came out at 622 nm.
